Experimental data: US9540691B2, “Assays and methods for selecting a treatment regimen for a subject with depression” (THE GENERAL HOSPITAL CORPORATION, priority 2011, dated 2017)
Where two headings read alike, the source gives them in different places.

System: MDD patients with at least one rare variant in an indicated SNP biomarker
Settings: with an SSRI
[1] = CACNA1C rs1006737 (AG), 13(30, 16)
[2] = COMT (Val 158) rs4633 (CC), 22(18, 9)
[3] = COMT (Val 158 Met) rs4680 (GG), 33(17, 9)
[4] = DAT (SLC6A3) rs250682 (CG), 33(33, 15)
[5] = DNMT38 rs1883729 (AG), 11(13, 8)
[6] = DNMT38 rs1883729 (AG), 11/13(32, 18)
[7] = DNMT38 rs1883729 (AG), 13(19, 10)
[8] = DRD2 (H313H) rs6275 (TT), 11(10, 5)
[9] = DRD2 (SLC26A9) rs11240594 (AG), 33(36, 20)
[10] = DRD2 (Taql Br) rs1079596 (TC), 42(18, 11)
[11] = DRD2 (Taql Br) rs1079596 (TC), 42/44(18, 11)
[12] = FDRC rs2277820 (TC), 22(30, 15)
[13] = GCHFR rs7163862 (TA), 41(37, 20)
[14] = GCHI rs8007267 (TC), 42(22, 10)
[15] = GCPH or FOLH1 rs202676 (AG), 31(23, 9)
[16] = MTHFD 1 G1958A (R653Q) rs2236225 (AG), 33(28, 16)
[17] = MTHFR G1793A rs2274976 (GA), 42(19, 5)
[18] = PCYT1A rs7639752 (AA), 11(12, 7)
[19] = RCF1 A > G rs2297291 (AA), 11(12, 7)
[20] = RCF2 (in SLC19A3) rs12659 (TT), 11(10, 7)
[21] = RCFI (in SLC19A1) rs1051266 (AA), 44(11, 6)

## CN1c2c(nc(N)[nH]c2=O)NC[C@@H]1CNc1ccc(C(=O)N[C@@H](CCC(=O)O)C(=O)O)cc1 [6(S)-5-MTHF, 6(S)-5-methyltetrahydrofolate]
[1]
  EFFECT on change in HAMD-28, PHASE I: −8.006
  EFFECT on change in HAMD-28, PHASE II: −2.467
  EFFECT on change in HAMD-28, POOLED PHASES: −4.633
[2]
  EFFECT on change in HAMD-28, PHASE I: −10.070
  EFFECT on change in HAMD-28, PHASE II: −10.170
  EFFECT on change in HAMD-28, POOLED PHASES: −9.240
[3]
  EFFECT on change in HAMD-28, PHASE I: −12.070
  EFFECT on change in HAMD-28, PHASE II: −10.170
  EFFECT on change in HAMD-28, POOLED PHASES: −10.880
[4]
  EFFECT on change in HAMD-28, PHASE I: −5.722
  EFFECT on change in HAMD-28, PHASE II: −5.768
  EFFECT on change in HAMD-28, POOLED PHASES: −4.996
[5]
  EFFECT on change in HAMD-28, PHASE I: −2.318
  EFFECT on change in HAMD-28, PHASE II: −5.267
  EFFECT on change in HAMD-28, POOLED PHASES: −4.811
[6]
  EFFECT on change in HAMD-28, PHASE I: −6.340
  EFFECT on change in HAMD-28, PHASE II: −4.940
  EFFECT on change in HAMD-28, POOLED PHASES: −5.360
[7]
  EFFECT on change in HAMD-28, PHASE I: −8.097
  EFFECT on change in HAMD-28, PHASE II: −4.667
  EFFECT on change in HAMD-28, POOLED PHASES: −6.748
[8]
  EFFECT on change in HAMD-28, PHASE I: −16.560
  EFFECT on change in HAMD-28, PHASE II: 1.667
  EFFECT on change in HAMD-28, POOLED PHASES: −7.627
[9]
  EFFECT on change in HAMD-28, PHASE I: −5.018
  EFFECT on change in HAMD-28, PHASE II: −3.424
  EFFECT on change in HAMD-28, POOLED PHASES: −3.758
[10]
  EFFECT on change in HAMD-28, PHASE I: −10.640
  EFFECT on change in HAMD-28, PHASE II: −3.893
  EFFECT on change in HAMD-28, POOLED PHASES: −6.903
[11]
  EFFECT on change in HAMD-28, PHASE I: −10.640
  EFFECT on change in HAMD-28, PHASE II: −3.893
  EFFECT on change in HAMD-28, POOLED PHASES: −6.903
[12]
  EFFECT on change in HAMD-28, PHASE I: −2.634
  EFFECT on change in HAMD-28, PHASE II: −6.232
  EFFECT on change in HAMD-28, POOLED PHASES: −4.027
[13]
  EFFECT on change in HAMD-28, PHASE I: −6.380
  EFFECT on change in HAMD-28, PHASE II: −4.542
  EFFECT on change in HAMD-28, POOLED PHASES: −4.863
[14]
  EFFECT on change in HAMD-28, PHASE I: −7.729
  EFFECT on change in HAMD-28, PHASE II: −5.417
  EFFECT on change in HAMD-28, POOLED PHASES: −6.654
[15]
  EFFECT on change in HAMD-28, PHASE I: −7.314
  EFFECT on change in HAMD-28, PHASE II: −3.300
  EFFECT on change in HAMD-28, POOLED PHASES: −5.402
[16]
  EFFECT on change in HAMD-28, PHASE I: −2.742
  EFFECT on change in HAMD-28, PHASE II: −3.762
  EFFECT on change in HAMD-28, POOLED PHASES: −3.496
[17]
  EFFECT on change in HAMD-28, PHASE I: −5.333
  EFFECT on change in HAMD-28, PHASE II: 2.833
  EFFECT on change in HAMD-28, POOLED PHASES: −5.551
[18]
  EFFECT on change in HAMD-28, PHASE I: −10.400
  EFFECT on change in HAMD-28, PHASE II: −3.900
  EFFECT on change in HAMD-28, POOLED PHASES: −6.216
[19]
  EFFECT on change in HAMD-28, PHASE I: −8.778
  EFFECT on change in HAMD-28, PHASE II: −1.400
  EFFECT on change in HAMD-28, POOLED PHASES: −5.458
[20]
  EFFECT on change in HAMD-28, PHASE I: −7.571
  EFFECT on change in HAMD-28, PHASE II: −1.400
  EFFECT on change in HAMD-28, POOLED PHASES: −4.860
[21]
  EFFECT on change in HAMD-28, PHASE I: −10.000
  EFFECT on change in HAMD-28, PHASE II: −2.750
  EFFECT on change in HAMD-28, POOLED PHASES: −7.673
